Test results from US8299056B2 (Signal Pharmaceuticals, LLC, priority 2008, dated 2012).
pIC50: −log10 of the molar value. Where two headings read alike, the source gives them in different places.

Molecular target: T1, Syk (Homo sapiens, UniProt P43405)
T1 construct: purchased Carna Biosciences
Assay: Syk HTRF assay
Assay type: biochemical
In short: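 HTRF kinase assay in HEPES pH 7.6 buffer with MgCl2, DTT and Triton X100; start mix of 87.5 μM ATP and 80 nM biotinylated peptide, 1 h at room temperature. EDTA stop, then Eu-anti-phosphotyrosine/streptavidin-DyLight 647 detection, read as 665/615 nm emission ratio.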

[1] = IC50 activity level, read-out: Activity Level
[2] = read-out: Activity Level (Syk HTRF assay IC50)
[3] = activity levels A-D, read-out: Activity Level (IC50 in the Syk HTRF assay)

Compound | pIC50 [1] | pIC50 [2] | pIC50 [3]
CC1(C)NC(=O)c2cc(Nc3nc4cccc(CC5CCOCC5)n4n3)ccc21 [compound 113, 3,3-dimethyl-6-(5-((tetrahydro-2H-pyran-4-yl)methyl)-[1,2,4]triazolo[1,5-a]pyridin-2-ylamino)isoindolin-1-one] |  | 5.00 to 6.00 | 
CN1C(=O)Cc2ccc(Nc3nc4cccc(NC5CCOCC5)n4n3)cc21 [compound 119, 1-methyl-6-(5-(tetrahydro-2H-pyran-4-ylamino)-[1,2,4]triazolo[1,5-a]pyridin-2-ylamino)indolin-2-one] |  | 5.00 to 6.00 | 
Cn1ncc2ccc(Nc3nc4cccc(NC5CCCNC5)n4n3)cc21 (stereo in doubt) [Example 463, (R)-N^2-(1-methyl-1H-indazol-6-yl)-N^5-(piperidin-3-yl)-[1,2,4]triazolo[1,5-a]pyridin-2,5-diamine] | 6.00 to 6.30 |  | 
Fc1cccc(-c2cccc3nc(Nc4ccc5[nH]ncc5c4)nn23)c1 [compound 2, 5-(3-fluorophenyl)-N-(1H-indazol-5-yl)-[1,2,4]triazolo[1,5-a]pyridin-2-amine] |  | 6.60 to 11.30 | 
Nc1nccc2ccc(-c3cccc4nc(Nc5ccccc5)nn34)cc12 [Example 489, 7-(2-(phenylamino)-[1,2,4]triazolo[1,5-a]pyridin-5-yl)isoquinolin-1-amine] | 6.00 to 6.30 |  | 
Cc1n[nH]c2cc(Nc3nc4cccc(NC5COCC5O)n4n3)ccc12 (racemic) [Example 166, (±)-trans-4-(2-(3-methyl-1H-indazol-6-ylamino)-[1,2,4]-triazolo[1,5-a]pyridin-5-ylamino)tetrahydrofuran-3-ol] |  | 6.60 to 11.30 | 
Oc1cccc(-c2cccc3nc(Nc4ccc5cnoc5c4)nn23)c1 [compound 14, 3-(2-(benzo[d]isoxazol-6-ylamino)-[1,2,4]triazolo[1,5-a]pyridin-5-yl)phenol] |  | 6.60 to 11.30 | 
O=C1CN(Cc2cccc3nc(Nc4cnc5[nH]ccc5c4)nn23)CCN1 [Example 229, 4-((2-(1H-pyrrolo[2,3-b]pyridin-5-ylamino)-[1,2,4]triazolo[1,5-a]pyridin-5-yl)methyl)piperazin-2-one] |  |  | 6.60 to 11.30
Cc1n[nH]c2cc(Nc3nc4cccc(NCC5CCOCC5)n4n3)ccc12 [Example 220, N^2-(3-methyl-1H-indazol-6-yl)-N^5-((tetrahydro-2H-pyran-4-yl)methyl)-[1,2,4]triazolo[1,5-a]pyridin-2,5-diamine] |  |  | 6.30 to 6.60
Oc1cccc(-c2cccc3nc(Nc4ccc(N5CCOCC5)cc4)nn23)c1 [compound 32, 3-(2-(4-morpholinophenylamino)-[1,2,4]triazolo[1,5-a]pyridin-5-yl)phenol] |  | 6.60 to 11.30 | 
Nc1ccc2cc(Nc3nc4cccc(-c5ccccc5)n4n3)ccc2n1 [compound 17] |  | 6.60 to 11.30 | 
COc1cc(-c2cccc3nc(Nc4ccccc4)nn23)ccn1 [Example 521] | 6.00 to 6.30 |  | 
NC(=O)c1cccc(Nc2nc3cccc(-c4ccccc4)n3n2)c1 [compound 67, 3-(5-phenyl-[1,2,4]triazolo[1,5-a]pyridin-2-ylamino)benzamide] |  | 6.00 to 6.30 | 
Nc1n[nH]c2cc(Nc3nc4cccc(-c5ccccc5)n4n3)ccc12 [compound 57] |  | 6.60 to 11.30 | 
Cc1noc2cc(Nc3nc4cccc(NC5CCOCC5)n4n3)ccc12 [Example 531, N^2-(3-methylbenzo[d]isoxazol-6-yl)-N^5-(tetrahydro-2H-pyran-4-yl)-[1,2,4]triazolo[1,5-a]pyridine-2,5-diamine] | 5.00 to 6.00 |  | 
O=C1NCc2ccc(-c3cccc4nc(Nc5ccccc5)nn34)cc21 [Example 500, 6-(2-(phenylamino)-[1,2,4]triazolo[1,5-a]pyridin-5-yl)-isoindolin-1-one] | 6.00 to 6.30 |  | 
Cc1n[nH]c2cc(Nc3nc4cccc(NC[C@H]5CCC(O)C5)n4n3)ccc12 (stereo in doubt) [Example 180, (1R,3S)-3-((2-(3-methyl-1H-indazol-6-ylamino)-[1,2,4]triazolo[1,5-a]pyridin-5-ylamino)methyl)cyclopentanol] |  | 6.60 to 11.30 | 
CC(c1cccc2nc(Nc3ccc4c(c3)NC(=O)C4(C)C)nn12)C1CCOCC1 (stereo not shown) [Example 159, 3,3-dimethyl-6-(5-(1-(tetrahydro-2H-pyran-4-yl)ethyl)-[1,2,4]triazolo[1,5-a]pyridin-2-ylamino)indolin-2-one] |  | 6.60 to 11.30 | 

Now from value to molecule:

pIC50 [1] | pIC50 [2] | pIC50 [3] | Compound
6.30 to 6.60 |  |  | O[C@@H]1CC[C@H](Nc2cccc3nc(Nc4ccc(C(F)(F)F)cc4)nn23)C1 [Example 421, (1R,3S)-3-(2-(4-(trifluoromethyl)phenylamino)-[1,2,4]triazolo[1,5-a]pyridin-5-ylamino)cyclopentanol]
 |  | 6.30 to 6.60 | CNC(=O)c1ccc(Nc2nc3cccc(OC4CCC(N)CC4)n3n2)cc1 (stereo in doubt) [Example 291, trans-4-(5-(4-aminocyclohexyloxy)-[1,2,4]triazolo[1,5-a]pyridin-2-ylamino)-N-methylbenzamide]
6.60 to 11.30 |  |  | NC(=O)c1ccc(Nc2nc3cccc(N[C@H]4CC[C@@H](N)CC4)n3n2)cc1 [Example 493, cis-4-(5-(4-aminocyclohexylamino)-[1,2,4]triazolo[1,5-a]pyridin-2-ylamino)benzamide]
 |  | 6.30 to 6.60 | CC(C)(O)c1nc2ccc(-c3cccc4nc(Nc5ccc(C(F)(F)F)cc5)nn34)cc2[nH]1 [Example 379, 2-(6-(2-(4-(trifluoromethyl)phenylamino)-[1,2,4]triazolo[1,5-a]pyridin-5-yl)-1H-benzo[d]imidazol-2-yl)propan-2-ol]
6.60 to 11.30 |  |  | FC(F)(F)c1ccc(Nc2nc3cccc(N[C@H]4CCCNC4)n3n2)cc1 [Example 469, (S)-N^5-(piperidin-3-yl)-N^2-(4-(trifluoromethyl)phenyl)-[1,2,4]triazolo[1,5-a]pyridin-2,5-diamine]
 |  | 6.00 to 6.30 | C[C@@H](CO)Nc1cccc2nc(Nc3ccc(C(F)(F)F)cc3)nn12 [Example 329, (S)-2-(2-(4-(trifluoromethyl)phenylamino)-[1,2,4]triazolo[1,5-a]pyridin-5-ylamino)propan-1-ol]
5.00 to 6.00 |  |  | C[C@H](Cc1cccc2nc(Nc3ccccc3)nn12)C(N)=O [Example 460, (R)-2-methyl-3-(2-(phenylamino)-[1,2,4]triazolo[1,5-a]pyridin-5-yl)propanamide]
 |  | 6.00 to 6.30 | NCCOc1cccc2nc(Nc3ccc(C(F)(F)F)cc3)nn12 [Example 296, 5-(2-aminoethoxy)-N-(4-(trifluoromethyl)phenyl)-[1,2,4]triazolo[1,5-a]pyridin-2-amine]
 |  | 6.60 to 11.30 | O[C@H]1CCC[C@H](Nc2cccc3nc(Nc4ccc(C(F)(F)F)cc4)nn23)C1 (racemic) [Example 248, (±)-trans-3-(2-(4-(trifluoromethyl)phenylamino)-[1,2,4]triazolo[1,5-a]pyridin-5-ylamino)cyclohexanol]
 | 6.60 to 11.30 |  | Cn1ncc2ccc(Nc3nc4cccc(-c5ccccc5)n4n3)cc21 [compound 54, N-(1-methyl-1H-indazol-6-yl)-5-phenyl-[1,2,4]triazolo[1,5-a]pyridin-2-amine]
6.60 to 11.30 |  |  | CNC(=O)c1ccc(Nc2nc3cccc(-c4ccc5[nH]ncc5c4)n3n2)cc1 [Example 426, 4-(5-(1H-indazol-5-yl)-[1,2,4]triazolo[1,5-a]pyridin-2-ylamino)-N-methylbenzamide]
 |  | 6.60 to 11.30 | Cc1cc(Nc2nc3cccc(Cc4ccnc(O)c4)n3n2)ccc1F [Example 219, 4-((2-(4-fluoro-3-methylphenylamino)-[1,2,4]triazolo[1,5-a]pyridin-5-yl)methyl)pyridin-2-ol]
 |  | 6.30 to 6.60 | Cc1cc(Nc2nc3cccc(CN4CCNC(=O)C4)n3n2)ccc1F [Example 228, 4-((2-(4-fluoro-3-methylphenylamino)-[1,2,4]triazolo[1,5-a]pyridin-5-yl)methyl)piperazin-2-one]
 | 5.00 to 6.00 |  | NC(=O)c1cc(Nc2nc3cccc(-c4ccccc4)n3n2)ccc1F [compound 65, 2-fluoro-5-(5-phenyl-[1,2,4]triazolo[1,5-a]pyridin-2-ylamino)benzamide]
 |  | 5.00 to 6.00 | OCCOc1cccc2nc(Nc3ccc(C(F)(F)F)cc3)nn12 [Example 315, 2-(2-(4-(trifluoromethyl)phenylamino)-[1,2,4]triazolo[1,5-a]pyridin-5-yloxy)ethanol]
6.30 to 6.60 |  |  | OC1CC[C@H](Nc2cccc3nc(Nc4ccc(C(F)(F)F)cc4)nn23)C1 (stereo in doubt) [Example 419, (1S,3S)-3-(2-(4-(trifluoromethyl)phenylamino)-[1,2,4]triazolo[1,5-a]pyridin-5-ylamino)cyclopentanol]
 |  | 6.30 to 6.60 | OC[C@H]1CCCN1c1cccc2nc(Nc3ccc(C(F)(F)F)cc3)nn12 [Example 288, (R)-(1-(2-(4-(trifluoromethyl)phenylamino)-[1,2,4]triazolo[1,5-a]pyridin-5-yl)pyrrolidin-2-yl)methanol]
6.60 to 11.30 |  |  | Cc1cccc2nc(Nc3ccc4c(c3)NC(=O)C4(C)C)nn12 [Example 564]
 |  | 6.30 to 6.60 | O[C@H]1CCCN(c2cccc3nc(Nc4ccc(C(F)(F)F)cc4)nn23)C1 [Example 310, (S)-1-(2-(4-(trifluoromethyl)phenylamino)-[1,2,4]triazolo[1,5-a]pyridin-5-yl)piperidin-3-ol]
6.60 to 11.30 |  |  | CNCc1nc2cc(-c3cccc4nc(Nc5ccccc5)nn34)ccc2[nH]1 [Example 487, 5-(2-((methylamino)methyl)-1H-benzo[d]imidazol-5-yl)-N-phenyl-[1,2,4]triazolo[1,5-a]pyridin-2-amine]
 |  | 5.00 to 6.00 | CNC(=O)CNCc1cccc2nc(Nc3ccc(C(F)(F)F)cc3)nn12 [Example 213, N-methyl-2-((2-(4-(trifluoromethyl)phenylamino)-[1,2,4]triazolo[1,5-a]pyrridin-5-yl)methylamino)acetamide]
 |  | 5.00 to 6.00 | O[C@H]1CC[C@@H](CNc2cccc3nc(Nc4ccc(C(F)(F)F)cc4)nn23)CC1 [Example 382, cis-4-((2-(4-(trifluoromethyl)phenylamino)-[1,2,4]triazolo[1,5-a]pyridin-5-ylamino)methyl)cyclohexanol]
